# Data from patent US20060188566A1, “Nanoparticulate formulations of docetaxel and analogues thereof” (Elan Pharma International Limited, priority 2005, published 2006).
# Key:
# [1] = cited from earlier work
# [2] = cited from earlier work; remark: listed apart in the source
# [3] = system: COX-2 expression in human monocytes; conditions: human monocytes / human cells; cited from earlier work
# [4] = system: plasma proteins, primarily albumin, α1-acid glycoproteins, and lipoproteins; conditions: in vitro; cited from earlier work
# [5] = phase I trial; cited from earlier work
# [6] = system: COX-2 expression in murine cells; conditions: cited from earlier work
# [7] = Particle size of unmilled (conventional, non-nanoparticulate) docetaxel; assay type: physicochemical
# Excerpt: Unmilled trihydrate docetaxel has a mean particle size of 61,610 nm, with a D50 of 51,060 nm and a D90 of 119,690 nm.
# microtubules = conditions: compared with docetaxel; cited from earlier work
# mice = conditions: mouse, in vivo, iv
# Protocol: The purpose of this experiment was to determine the maximum tolerated dose of a nanoparticulate docetaxel formulation.
# To evaluate and characterize the acute toxicity of nanoparticulate docetaxel formulations, two nanoparticulate dispersions were utilized.
# Both nanoparticulate docetaxel formulations were administered intravenously at various doses to mice.
# The commercially available non-nanoparticulate docetaxel product, TAXOTERE®, was also tested in parallel with the nanoparticulate docetaxel formulations.
# [8] = IV administration of a 100-mg/m^2 dose, SD=0.8
# [9] = intravenous doses of 70 mg/m^2 to 115 mg/m^2, 3-compartment model, TAXOTERE®
compound,measurement,setting,value
"CC(=O)O[C@@]12CO[C@@H]1C[C@H](O)[C@@]1(C)C(=O)[C@H](O)C3=C(C)[C@@H](OC(=O)[C@H](O)[C@@H](NC(=O)OC(C)(C)C)c4ccccc4)C[C@@](O)([C@@H](OC(=O)c4ccccc4)[C@H]21)C3(C)C [docetaxel, (2R, 3S)-N-carboxy-3-phenylisoserine, N-tert-butyl ester, 13-ester with 5β-20-epoxy-1, 2α, 4, 7β, 10β, 13α-hexahydroxytax-11-en-9-one 4-acetate 2-benzoate, trihydrate]",solubility in water (in words),[1],practically insoluble in water
same,AUC,[2]; [8],4.6 µg·h/mL
same,mean peak plasma level,[2]; [8],3.7 µg/mL
same,steady-state volume of distribution (mean),"[2]; cancer patients, IV",113 L
same,mean population α half-life,[2]; [9],4 min
same,mean population β half-life,[2]; [9],36 min
same,mean population γ half-life,[2]; [9],666 min
same,COX-2 expression induction,[3],induces COX-2 expression only in human monocytes
same,bound to plasma proteins,[4],approximately 94%
paclitaxel,pharmacokinetic profile (linearity),[5],nonlinear pharmacokinetics
same,COX-2 expression induction,[6],paclitaxel-induced COX-2 expression
same,COX-2 expression induction,[3],paclitaxel-induced COX-2 expression
"CC(=O)O[C@@]12CO[C@@H]1C[C@H](O)[C@@]1(C)C(=O)[C@H](O)C3=C(C)[C@@H](OC(=O)[C@H](O)[C@@H](NC(=O)OC(C)(C)C)c4ccccc4)C[C@@](O)([C@@H](OC(=O)c4ccccc4)[C@H]21)C3(C)C [Unmilled trihydrate docetaxel, docetaxel]",D50,[7],"51,060 nm"
same,D90,[7],"119,690 nm"
same,mean particle size,[7],"61,610 nm"
CC(=O)OC12COC1CC(O)C1(C)C(=O)C(O)C3=C(C)C(OC(=O)C(O)C(NC(=O)OC(C)(C)C)C4CCCCC4)CC(O)(C(OC(=O)c4ccccc4)C21)C3(C)C (stereo not drawn) [3′-dephenyl-3′-cyclohexyldocetaxel],inhibitory activity for microtubule disassembly,microtubules,strong inhibitory activity for microtubule disassembly equivalent to docetaxel
CC(=O)OC12COC1CC(O)C1(C)C(=O)C(O)C3=C(C)C(OC(=O)C(O)C(NC(=O)OC(C)(C)C)c4ccccc4)CC(O)(C(OC(=O)C4CCCCC4)C21)C3(C)C (stereo not drawn) [2-(hexahydro)docetaxel],inhibitory activity for microtubule disassembly,microtubules,strong inhibitory activity for microtubule disassembly equivalent to docetaxel
TAXOTERE®,maximum tolerated dose (MD),mice,40 mg/kg
"CC(=O)O[C@@]12CO[C@@H]1C[C@H](O)[C@@]1(C)C(=O)[C@H](O)C3=C(C)[C@@H](OC(=O)[C@H](O)[C@@H](NC(=O)OC(C)(C)C)c4ccccc4)C[C@@](O)([C@@H](OC(=O)c4ccccc4)[C@H]21)C3(C)C [unmilled docetaxel (anhydrous), docetaxel]",D50,[7],"175,530 nm"
same,D90,[7],"435,810 nm"
same,mean particle size,[7],"212,060 nm"
